Holding throughout (format): functional
Test [1] can be described thus: Antibacterial activity against Vibrio cholerae O1 569B harboring gyrA and parC genes by 2-fold agar dilution method.
Test [2] relates to Escherichia coli. Description: Antibacterial activity against Escherichia coli JM109 harboring plasmid ptac85-vca0421.
The subject of test [3] is Escherichia coli. Briefly: Antibacterial activity against Escherichia coli JM109 harboring plasmid ptac85.
Test [4] can be described thus: Antibacterial activity against Vibrio cholerae O1 mTn-321 harboring Ser to Ile mutation at 83 position in gyrA and parC genes by 2-fold agar dilution method. For orientation: In agar dilution the substance is mixed into plates at graded concentrations.
Test [5] in a line: Antibacterial activity against Vibrio cholerae O1 CIP0.25-1 harboring Ser to Ile mutation at 83 position in gyrA and parC genes by 2-fold agar dilution method.

The structures appear in SMILES notation. Values after ≈ are worked out from the molar mass of the structure shown.

Usually MIC stands for the lowest concentration that inhibits growth of the organism. A high value points to a need for much substance.

As to `O=C(O)c1cn(C2CC2)c2cc(N3CCNCC3)c(F)cc2c1=O` [CIPROFLOXACIN], it took 4 ng/mL (≈ 0.0121 µM) to inhibit growth in test [1] (MIC).

In the case of `CCn1cc(C(=O)O)c(=O)c2cc(F)c(N3CCNCC3)nc21` [ENOXACIN], the minimal inhibitory concentration (MIC) turned out to be 2 µg/mL (≈ 6.24 µM) in test [2]; 4 µg/mL (≈ 12.5 µM) in test [3]; 0.25 µg/mL (≈ 0.78 µM) in test [4]; 31.3 ng/mL (≈ 0.0977 µM) in test [1]; 2 µg/mL (≈ 6.24 µM) in test [5].

On to `CCn1cc(C(=O)O)c(=O)c2cc(F)c(N3CCNCC3)cc21` [NORFLOXACIN], for which the MIC in test [2] stood at 1 µg/mL (≈ 3.13 µM); in test [3] it was 1 µg/mL (≈ 3.13 µM); in test [4] it was 0.125 µg/mL (≈ 0.391 µM); in test [1] it was 7.8 ng/mL (≈ 0.0244 µM); in test [5] it was 2 µg/mL (≈ 6.26 µM).

For the compound `C[C@@H]1CN(c2c(F)c(N)c3c(=O)c(C(=O)O)cn(C4CC4)c3c2F)C[C@H](C)N1` [SPARFLOXACIN], the minimal inhibitory concentration (MIC) in test [2] worked out at 0.125 µg/mL (≈ 0.319 µM); in test [3], 0.25 µg/mL (≈ 0.637 µM); in test [4] it was 0.0625 µg/mL (≈ 0.159 µM); in test [1], 4 ng/mL (≈ 0.0102 µM); in test [5], 0.125 µg/mL (≈ 0.319 µM).

Take `CN(C)[C@@H]1C(O)=C(C(N)=O)C(=O)[C@@]2(O)C(O)=C3C(=O)c4c(O)cccc4[C@@](C)(O)[C@H]3C[C@@H]12` [TETRACYCLINE]: the minimum inhibitory concentration (MIC) in test [2] came to 8 µg/mL (≈ 18 µM); in test [3], 16 µg/mL (≈ 36 µM); in test [1], 500 ng/mL (≈ 1.13 µM); in test [5] it was 4 µg/mL (≈ 9 µM).

The values above are taken from ChEMBL document CHEMBL1671754, “Reduced expression of the vca0421 gene of Vibrio cholerae O1 results in innate resistance to ciprofloxacin” (2010).
